From ChEMBL document CHEMBL1201862, “PubChem BioAssay data set” (2004)
The source made the active and inactive calls.

Columns and labels:
[1] = target: T1, Protein skinhead-1 (Caenorhabditis elegans, UniProt P34707); assay type: functional
T1 sequence (P34707 whole entry): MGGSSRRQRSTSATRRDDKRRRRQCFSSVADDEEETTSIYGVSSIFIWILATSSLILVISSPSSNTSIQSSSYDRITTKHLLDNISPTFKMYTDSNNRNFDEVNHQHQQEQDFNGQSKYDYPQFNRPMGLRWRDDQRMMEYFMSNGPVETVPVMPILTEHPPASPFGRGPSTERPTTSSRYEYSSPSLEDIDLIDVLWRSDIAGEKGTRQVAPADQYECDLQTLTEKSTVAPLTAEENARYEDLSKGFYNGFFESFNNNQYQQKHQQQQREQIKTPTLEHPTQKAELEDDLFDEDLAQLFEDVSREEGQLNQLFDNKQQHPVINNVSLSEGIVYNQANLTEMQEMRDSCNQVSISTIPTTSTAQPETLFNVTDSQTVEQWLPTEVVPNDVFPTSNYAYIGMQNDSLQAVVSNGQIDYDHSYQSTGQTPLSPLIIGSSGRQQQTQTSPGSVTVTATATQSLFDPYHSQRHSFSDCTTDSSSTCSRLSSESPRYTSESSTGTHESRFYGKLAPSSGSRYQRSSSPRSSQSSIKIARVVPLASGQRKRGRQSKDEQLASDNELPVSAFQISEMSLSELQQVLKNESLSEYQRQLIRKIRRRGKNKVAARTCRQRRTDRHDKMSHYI

[2] = target: T2, Corticotropin-releasing factor receptor 2/Corticotropin-releasing factor-binding protein (Homo sapiens, UniProt P24387+Q13324); experiment: Dose Response confirmation of uHTS hits for small molecule antagonists of the CRF-binding protein and CRF-R2 receptor complex.; assay type: functional; conditions: read-out: IC50_Mean
T2 sequence (Q13324 whole entry): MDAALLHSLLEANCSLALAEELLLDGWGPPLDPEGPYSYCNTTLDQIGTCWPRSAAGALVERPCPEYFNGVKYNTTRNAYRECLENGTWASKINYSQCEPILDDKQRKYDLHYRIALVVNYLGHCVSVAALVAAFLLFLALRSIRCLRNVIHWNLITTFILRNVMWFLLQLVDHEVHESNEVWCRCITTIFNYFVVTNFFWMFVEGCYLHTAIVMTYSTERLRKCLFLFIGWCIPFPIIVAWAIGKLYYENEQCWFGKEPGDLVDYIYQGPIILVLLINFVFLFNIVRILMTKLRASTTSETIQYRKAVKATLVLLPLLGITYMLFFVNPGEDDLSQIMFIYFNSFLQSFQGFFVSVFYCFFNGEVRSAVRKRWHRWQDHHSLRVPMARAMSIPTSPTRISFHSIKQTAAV
T2 sequence (P24387 whole entry): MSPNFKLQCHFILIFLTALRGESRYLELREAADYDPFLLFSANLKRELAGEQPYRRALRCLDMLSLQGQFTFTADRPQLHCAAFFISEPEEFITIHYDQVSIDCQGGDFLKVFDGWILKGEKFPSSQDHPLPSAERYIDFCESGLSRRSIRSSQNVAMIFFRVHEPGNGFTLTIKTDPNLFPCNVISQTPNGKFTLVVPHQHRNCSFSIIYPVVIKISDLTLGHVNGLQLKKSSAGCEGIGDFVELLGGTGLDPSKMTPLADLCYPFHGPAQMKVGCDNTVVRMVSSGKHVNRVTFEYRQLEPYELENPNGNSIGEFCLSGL

[3] = target: T2, Corticotropin-releasing factor receptor 2/Corticotropin-releasing factor-binding protein; experiment: activators of CRF receptor 2 with binding protein – uHTS hits, confirmation (AID 602473); assay type: functional; conditions: read-out: EC50_Mean
[4] = growth suppression of PTEN-null colon cells, dose response, cell-based, HCT116 PTEN knockout (AID 1047); assay type: functional;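 also: HCT116 colon tumor cells with PTEN knocked out; cells exposed to compound for 60 hours before readout; potency for loss of cell viability measured by luminescence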
[5] = growth suppression of beta-catenin-knockout colon cells, dose response, cell-based, HCT116, human colon tumor (AID 1045); assay type: functional;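 also: HCT116 colon tumor cells with beta catenin knocked out; cells exposed to compound for 60 hours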
[6] = target: Cytochrome P450 2D6 (Homo sapiens, UniProt P10635);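 also: CYP2D6 member of a cytochrome P450 panel assay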
[7] = inhibitors of intracellular T. cruzi replication, confirmation, NIH3T3 host cells, beta-gal luminescence (AID 2044); assay type: functional, cell-based;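 also: intracellular parasites grown in NIH/3T3 mouse fibroblasts as host cells; luminescent beta-galactosidase reporter signal from transgenic T. cruzi replicating inside host cells; inhibitors lower the luminescence signal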
[8] = cytotoxicity toward NIH3T3 fibroblasts, dose response, counter-screen, cell-based, ATP luminescence, mouse fibroblasts (AID 2010); assay type: functional;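 also: cells exposed to compound for about 90 hours before reading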
[9] = target: Luciferin 4-monooxygenase (Photinus pyralis, UniProt P08659); experiment: firefly luciferase enzyme inhibitors, dose response, biochemical, luminescence (AID 1891)
[10] = Luminescence Cell-Based Dose Confirmation HTS to Identify Inhibitors of Platelet Dense Granule Release. [Related pubchem assays: 1663 (Primary HTS), 1678 (Summary of Project)]; assay type: functional
[11] = target: T3, Heat shock factor protein 1 (Mus musculus, UniProt P38532); experiment: HSF1 potentiators in luciferase reporter cells, confirmation, cell-based, NIH3T3, luminescence, dose retest (AID 435004); assay type: functional;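 also: stress induced by proteasome inhibitor MG132 added 30 min after compound; luciferase reporter driven by HSF1 response element in NIH3T3 cells; actives raise luminescence as potentiators of the MG132 stress response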
T3 sequence (P38532 whole entry): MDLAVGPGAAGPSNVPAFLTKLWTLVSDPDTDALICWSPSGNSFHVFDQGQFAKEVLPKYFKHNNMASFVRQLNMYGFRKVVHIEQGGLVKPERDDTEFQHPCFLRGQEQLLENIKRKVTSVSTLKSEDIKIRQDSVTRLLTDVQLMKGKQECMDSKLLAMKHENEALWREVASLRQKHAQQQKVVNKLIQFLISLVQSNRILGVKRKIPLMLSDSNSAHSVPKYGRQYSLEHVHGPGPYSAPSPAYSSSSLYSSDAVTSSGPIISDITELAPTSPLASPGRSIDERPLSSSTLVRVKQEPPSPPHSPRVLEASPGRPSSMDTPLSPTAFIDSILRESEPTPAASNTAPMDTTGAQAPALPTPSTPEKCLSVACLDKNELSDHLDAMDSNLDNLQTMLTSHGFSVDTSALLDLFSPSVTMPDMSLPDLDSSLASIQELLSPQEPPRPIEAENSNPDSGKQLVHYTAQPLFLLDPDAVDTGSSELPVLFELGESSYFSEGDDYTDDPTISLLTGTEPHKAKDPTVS

[12] = Luminescence Cell-Based Dose Retest to Confirm Inhibitors of Cancer Stem Cells. [Related pubchem assays (depositor defined):AID2717, AID2721]; assay type: functional; conditions: Homo sapiens
[13] = tested on: Streptococcus sp. 'group A'; experiment: growth inhibition of control SK(-) GAS strain, dose response, counter-screen for streptokinase expression inhibitor project, luminescence, kanamycin, BacTiterGlo, confirmation (AID 1900); assay type: functional, organism-based
[14] = target: T4, Streptokinase A (Streptococcus pyogenes serotype M1, UniProt P10520); experiment: S. pyogenes streptokinase expression inhibitors, potency, dose response, plasminogen activation absorbance, OD405 (AID 1914); assay type: functional, Streptococcus pyogenes M1 GAS;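 also: secreted streptokinase activity via plasminogen activation per viability signal from cell pellet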
T4 sequence (P10520 whole entry): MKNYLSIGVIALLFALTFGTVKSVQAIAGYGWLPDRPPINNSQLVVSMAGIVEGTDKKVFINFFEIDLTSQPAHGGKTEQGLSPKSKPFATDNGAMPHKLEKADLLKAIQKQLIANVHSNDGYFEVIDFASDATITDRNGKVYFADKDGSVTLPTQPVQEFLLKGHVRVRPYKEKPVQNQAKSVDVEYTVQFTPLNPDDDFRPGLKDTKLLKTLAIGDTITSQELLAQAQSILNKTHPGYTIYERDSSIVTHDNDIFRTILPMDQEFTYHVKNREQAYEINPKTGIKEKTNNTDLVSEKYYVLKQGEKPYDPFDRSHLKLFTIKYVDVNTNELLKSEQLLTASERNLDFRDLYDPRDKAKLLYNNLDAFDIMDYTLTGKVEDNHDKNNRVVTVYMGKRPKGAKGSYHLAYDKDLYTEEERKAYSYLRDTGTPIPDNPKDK

[15] = tested on: Streptococcus; experiment: Group A Streptococcus viability loss, dose response, counter-screen for streptokinase expression inhibitor project, luminescence, BacTiterGlo (AID 1915); assay type: functional, organism-based;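 also: potency for reduction of bacterial viability or growth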
[16] = inhibitors of HIV Env-driven cell fusion, dose response, cherry-pick (AID 652057); assay type: functional, cell-based
[17] = inhibitors of clade B AD8 Env fusion, dose response, cell-based, cherry-pick (AID 652062); assay type: functional;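 also: luciferase signal from cell-cell fusion driven by HIV-1 clade B AD8 Env; potency is for inhibitors of fusion seen as a drop in luminescence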

Sequence of Cytochrome P450 2D6 (P10635 whole entry): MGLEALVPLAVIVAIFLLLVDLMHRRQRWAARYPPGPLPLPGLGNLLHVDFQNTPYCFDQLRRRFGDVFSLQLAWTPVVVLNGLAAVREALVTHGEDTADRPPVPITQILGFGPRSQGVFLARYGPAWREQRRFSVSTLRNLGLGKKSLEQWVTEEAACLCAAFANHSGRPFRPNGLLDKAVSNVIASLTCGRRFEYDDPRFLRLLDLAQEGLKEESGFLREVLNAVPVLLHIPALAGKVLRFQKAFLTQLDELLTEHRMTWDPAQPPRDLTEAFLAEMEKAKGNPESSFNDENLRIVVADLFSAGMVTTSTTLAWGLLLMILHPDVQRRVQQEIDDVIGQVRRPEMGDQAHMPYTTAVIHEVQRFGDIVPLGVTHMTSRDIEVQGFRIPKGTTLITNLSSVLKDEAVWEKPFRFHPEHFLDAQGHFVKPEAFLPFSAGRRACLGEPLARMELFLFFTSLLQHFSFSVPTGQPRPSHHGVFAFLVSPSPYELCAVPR
Sequence of Luciferin 4-monooxygenase (P08659 whole entry): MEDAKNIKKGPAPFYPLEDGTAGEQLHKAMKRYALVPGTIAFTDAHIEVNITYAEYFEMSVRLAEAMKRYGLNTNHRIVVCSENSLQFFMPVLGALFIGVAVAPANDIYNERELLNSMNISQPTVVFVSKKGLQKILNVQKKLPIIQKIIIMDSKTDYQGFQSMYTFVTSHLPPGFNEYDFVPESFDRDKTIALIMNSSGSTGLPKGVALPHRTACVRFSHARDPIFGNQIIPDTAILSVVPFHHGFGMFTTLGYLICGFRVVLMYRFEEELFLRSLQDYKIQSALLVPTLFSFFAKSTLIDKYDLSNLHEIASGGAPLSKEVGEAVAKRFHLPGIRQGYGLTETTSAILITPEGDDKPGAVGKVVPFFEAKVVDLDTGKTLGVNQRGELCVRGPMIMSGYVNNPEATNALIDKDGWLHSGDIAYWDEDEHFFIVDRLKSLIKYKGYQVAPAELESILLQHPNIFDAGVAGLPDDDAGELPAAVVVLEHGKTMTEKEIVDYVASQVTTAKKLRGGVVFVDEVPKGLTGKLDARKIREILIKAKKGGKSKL

Structure (SMILES): FC(F)(F)c1cccc(-c2nc(-c3ccncc3)no2)c1
- IC50 [1]: > 100 µM (inactive)

Structure (SMILES): O=C(CCc1nnc2ccc(NCc3ccco3)nn12)N1CCN(c2ccccc2F)CC1
- IC50 [2]: > 47.1 µM (inactive)
- EC50 [3]: > 53 µM (inactive)

Structure (SMILES): COc1ccc(-c2c3c(nc4sc5c(Cl)nc(C)nc5c24)CCC3)cc1
- EC50 [4]: 4.46 µM (active)
- EC50 [5]: 1.59 µM (active)

Structure (SMILES): CCOc1ccc(NC(=O)C2CCCN(S(=O)(=O)c3c(C)nn(C)c3C)C2)cc1 (configuration not stated)
- IC50 [1]: > 100 µM (inactive)

Structure (SMILES): Cc1ccc(C(=O)/C=C/c2ccc(Br)cc2)o1
- EC50 [4]: 8.44 µM (active)
- EC50 [5]: 6.62 µM (active)

Structure (SMILES): COc1ccc(CN2CCCC(C(=O)c3cccc(Cl)c3)C2)cc1 (configuration not stated)
- IC50 [1]: > 100 µM (inactive)

Structure (SMILES): Cc1ccc(CCNC(=O)c2coc3nc4ccccc4nc23)cc1
- IC50 [1]: > 100 µM (inactive)

Structure (SMILES): COc1cnc(SCc2ccc(Cl)cc2)nc1Cl
- AC50 [6]: 17.8 µM (inconclusive)

Structure (SMILES): O=C(c1ccc(COc2ccc(F)cc2)o1)n1cccn1
- AC50 [6]: 0.00562 µM (inconclusive)

Structure (SMILES): N#CCC(=O)Nc1ccc(C(=O)OCC(=O)NNC(=O)c2cccs2)cc1
- IC50 [2]: > 47.1 µM (inactive)
- EC50 [3]: > 53 µM (inactive)

Structure (SMILES): COCCN1C(=O)CC(NNC(=O)c2ccc(S(=O)(=O)N3CCCC3)cc2)C1=O (configuration not stated)
- IC50 [1]: > 100 µM (inactive)

Structure (SMILES): Cc1ccc(NS(=O)(=O)c2cccc3nsnc23)cc1
- IC50 [2]: > 47.1 µM (inactive)
- EC50 [3]: > 53 µM (inactive)

Structure (SMILES): CC(C)CC1CC(=O)OC1(C)C(=O)CSc1nc2ccccc2s1 (configuration not stated)
- AC50 [6]: 3.55 µM (inconclusive)

Structure (SMILES): COc1ccc(S(=O)(=O)N(c2onc(C)c2Cl)S(=O)(=O)c2ccc(OC)cc2)cc1
- IC50 [2]: > 47.1 µM (inactive)
- EC50 [3]: > 53 µM (inactive)

Structure (SMILES): CCOC(=O)c1c(NC(=O)c2cc3n(n2)C(C(F)(F)F)CC(c2cccs2)N3)sc(C)c1C (configuration not stated)
- EC50 [4]: 2.45 µM (active)
- EC50 [5]: 2.59 µM (active)

Structure (SMILES): Cc1cccc2cc(C#N)c(N3CCCC3)nc12
- IC50 [1]: > 100 µM (inactive)

Structure (SMILES): COc1ccc(Cl)cc1C(=O)Nc1ccccc1N1CCCCC1
- IC50 [1]: > 100 µM (inactive)

Structure (SMILES): Cc1cccc(N(CC(O)CON=C2c3ccccc3-c3ccccc32)S(C)(=O)=O)c1 (configuration not stated)
- EC50 [7]: 3.22 µM (active)
- EC50 [4]: 28.8 µM (active)
- EC50 [8]: > 60 µM (not active)
- EC50 [5]: 29.6 µM (active)

Structure (SMILES): O=C(Nc1nc2ccc(Cl)cc2s1)c1ccc(N2CCCCC2)c([N+](=O)[O-])c1
- EC50 [4]: 12.2 µM (active)
- EC50 [5]: 13.5 µM (active)

Structure (SMILES): CN1CCC(N(C)CC(=O)Nc2ccccc2N2CCOCC2)CC1
- IC50 [1]: > 100 µM (inactive)

Structure (SMILES): Cc1ccc(-c2nc(CSCC(=O)N3CCN(c4ccccn4)CC3)c(C)o2)cc1
- EC50 [4]: 35 µM (active)
- EC50 [5]: 17.1 µM (active)

Structure (SMILES): OC(CNCc1cccc(Cl)c1)c1ccccc1 (configuration not stated)
- EC50 [9]: > 112 µM (not active)
- EC50 [10]: 21.2 µM (active)
- EC50 [11]: > 260 µM (inactive)

Structure (SMILES): CCc1cc2cc(C)cc(C)c2nc1SCC(=O)N1CCN(C(=O)c2ccco2)CC1
- AC50 [12]: 12.8 µM (active)
- IC50 [2]: > 47.1 µM (inactive)
- EC50 [3]: > 53 µM (inactive)

Structure (SMILES): CCSc1nnc(-c2ccc(Cl)cc2Cl)o1
- IC50 [1]: 29.7 µM (active)

Structure (SMILES): FC(F)(F)C1=CC(c2ccc(Cl)cc2)=NCCN1
- IC50 [1]: > 100 µM (inactive)

Structure (SMILES): c1ccc(-c2noc(CN3CCN(c4cnccn4)CC3)n2)cc1
- IC50 [2]: > 47.1 µM (inactive)
- EC50 [3]: > 53 µM (inactive)

Structure (SMILES): O=[N+]([O-])c1cccc(COc2ccc(CN3CCOCC3)cc2)c1
- IC50 [2]: > 47.1 µM (inactive)
- EC50 [3]: > 53 µM (inactive)

Structure (SMILES): CN(/N=C/c1ccc(Cl)cc1Cl)c1ncc(Cl)cc1C(F)(F)F
- EC50 [13]: 16.9 µM (active)
- EC50 [14]: 21.2 µM (active)
- EC50 [15]: > 150 µM (not active)
- IC50 [2]: > 47.1 µM (inactive)
- EC50 [3]: > 53 µM (inactive)

Structure (SMILES): CCNC(=O)C[C@H]1CC[C@@H]2[C@@H](COc3ccc(NC(=O)Nc4cccc(OC)c4)cc3C(=O)N2C)O1
- AC50 [16]: 37.7 µM (active)
- AC50 [17]: 50.2 µM (active)

Structure (SMILES): C[C@H]1CN([C@@H](C)CO)C(=O)c2ccccc2-c2ccccc2CO[C@H]1CN(C)Cc1cccc(F)c1
- AC50 [16]: < 0.26 µM (active)
- AC50 [17]: 0.416 µM (active)

Structure (SMILES): COc1cc(C[C@H](C)[C@H](C)Cc2ccc3c(c2)OCO3)ccc1O [AUSTROBAILIGNAN 6]
- AC50 [12]: 5.23 µM (active)
- IC50 [2]: > 47.1 µM (inactive)
- EC50 [3]: > 53 µM (inactive)
